Square brackets hold non-standard residues; d marks the D form. Peptide text beside a SMILES is read from it. * marks the point of attachment. ξ: configuration not given here. PhAc = O=C(Cc1ccccc1)*; ξP = O=C(O)C1CCCN1
Columns and labels:
[1] = system: patients with cognitive disturbances secondary to cerebrovascular and traumatic brain injury; test: Four-week open-label Phase II clinical trial of efficacy (MMSE, OCS, CCSE); assay type: in vivo, human; conditions: 10 mg orally t.i.d. for four weeks, 20 patients with mild cognitive disturbance
Method: The efficacy of 10 mg of compound 2 administered orally t.i.d. was investigated in a four-week open-label Phase II clinical trial at two centers. A total of 20 patients with cognitive disturbances secondary to cerebrovascular and traumatic brain injury were orally administered compound 2 during a Phase II clinical trial at a dose of 10 mg t.i.d. for a period of four weeks. At study entry, patients fulfilled specific criteria for mild cognitive disturbance.
Improvement on several tests, including the Mini Mental State Evaluation (MMSE) (Folstein et al., Psychiatric Research, 12, 189-198 (1975)), the Overall Clinical Impression Scale (OCS), which is a system developed by the National Institute of Mental Health: 12-CGI Clinical Global Impression ECDEU Assessment Manual for Psychopharmacology, E. Guyo, ed., Rockville Md., (217-222) (1976), and the Cognitive Capacity Screening Exam (CCSE) (Jacobs et al., Annals of Internal Medicine, 86, 40-46 (1977).

[2] = Preliminary study of oral bioavailability in four volunteers; assay type: in vivo; conditions: humans
[3] = Phase I clinical trials, plasma concentration after oral administration; assay type: in vivo, human; conditions: oral administration of the 20 mg/day dose
Method: Fourteen healthy young volunteers were orally administered 20 mg/day of compound 2 for 28 days in two Phase I clinical trials. 34 patients with mild to moderate cognitive disturbance were orally administered doses of up to 30 mg/day of compound 2 for 28 days.
After oral administration of the 20 mg/day dose, peak plasma concentrations of 25-38 ng/mL were observed 15-30 minutes after dosing.

In the case of `CCOC(=O)CNC(=O)C1CCCN1C(=O)Cc1ccccc1` (stereo not shown) [compound 2] (PhAc-[ξP]-Gly-OEt), the “treated patients who met the definition of efficacy response (statistically measured improvement in one or more of the tests by the end of the study)” value [1] is reported as “over 75%”, the oral bioavailability [2] is reported as “orally bioavailable” and the peak plasma concentrations [3] is reported as 25 to 38 ng/mL. For the same molecule, the “time of peak plasma concentrations after dosing” value [3] was 15 to 30 min.

Reference: patent US20020187977A1, “Methods for restoring cognitive function following systemic stress” (priority 2001, published 2002)
